Data reported in publication PMC5820647, “Simultaneous Quantification of Gallic Acid, Bergenin, Epicatechin, Epicatechin Gallate, Isoquercitrin, and Quercetin-3-Rhamnoside in Rat Plasma by LC-MS/MS Method and Its Application to Pharmacokinetics after Oral Administration of Ardisia japonica Extract” (Evidence-based Complementary and Alternative Medicine : eCAM, 2018).
Read-outs that look alike come from different tables or passages of the source.

Key:
[1] = assay type: physicochemical; conditions: for Free-throw 3 times Accuracy: 3 cycles freezing at about −20°C and thawing at room temperature; for 24 h stability Accuracy: autosampler, room temperature
Description: The standard stock solutions of gallic acid, bergenin, epicatechin, epicatechin gallate, isoquercitrin, and quercetin-3-rhamnoside were prepared by dissolving each separately in methanol to achieve a concentration of 1 mg mL^−1 for use as the stock solution. The three ISs including ferulic acid, puerarin, and warfarin were prepared using the same procedure as mentioned above with the concentration being 1 μg mL^−1. Calibration standard solutions were prepared by spiking the different concentrations of the standard mixture working solutions into plasma to achieve the concentration range of 2–500 ng mL^−1 for gallic acid; 2–500 ng mL^−1 for bergenin; 4–1000 ng mL^−1 for epicatechin; 2–500 ng mL^−1 for epicatechin gallate; 1–250 ng mL^−1 for isoquercitrin; and 0.4–100 ng mL^−1 for quercetin-3-rhamnoside. The QC samples were prepared by spiking 10 μL of the standard stock solutions into 100 μL of blank plasma to achieve LLOQ, low, medium and high concentrations of 2, 6, 20, and 200 ng mL^−1 for gallic acid; 2, 6, 20, and 200 ng mL^−1 for bergenin; 4, 12, 40, and 400 ng mL^−1 for epicatechin; 2, 6, 20, and 200 ng mL^−1 for epicatechin gallate; 1, 3, 10, and 100 ng mL^−1 for isoquercitrin; and 0.4, 1.2, 4, and 40 ng mL^−1 for quercetin-3-rhamnoside.
The stability for 6 analysis compounds including 24 h stability (keeping the sample in autosampler conditions of room temperature for 24 h), three freeze/thaw cycles (subjected to 3 cycles of freezing at about −20°C and thawing at room temperature), and a long-term stability (stored at about −80°C for 4 weeks) of analytes in plasma was performed by analyzing QC samples at four different concentrations.

[2] = Pharmacokinetic study in rats after oral administration of A. japonica extract (LC-MS/MS of plasma); assay type: in vivo; conditions: male, Sprague-Dawley; for Tmax: n = 10; for MRT: read-out: MRT(0–t24 h); for MRT inf: read-out: MRT(0–∞); for Cmax: read-out: peak plasma concentration (Cmax)
Description: The LC-MS/MS system consisted of an Agilent 1200 system coupled with a binary pump (G1312A), an autosampler (G13678), a vacuum degasser (G1322A), and an API 3200 triple quadrupole mass spectrometer with an ESI source. […] The flow rate was set at 300 μL min^−1 and the inject volume was 10 μL.
The analytes were determined in negative mode and quantified by multiple-reaction monitoring (MRM) mode. The source parameters were as follows: curtain gas, 25 psi; collision gas, 12 psi; ion spray voltage, −4500 V; temperature, 500°C; ion source gas 1, 45 psi; and ion source gas 2, 55 psi, respectively. Data acquisition was operated by Analyst 1.4.2 software (AB Sciex).
100 μL of plasma sample, 10 μL of the IS solutions, and 10 μL of 30% formic acid were added to the tube. Samples were vortex-mixed for 1 min, and 400 μL of acetonitrile was then used in precipitating the protein, after which they were centrifuged for 10 min at 14,000 rpm. The supernatant was transferred into another centrifuge tube and evaporated using nitrogen gas to dryness. The dried residue was reconstituted using 100 μL of methanol. The sample was further shaken and ultrasonicated for 2 min to ensure that it was well dissolved. It was subsequently centrifuged at 14,000 rpm for 10 min, and 10 μL aliquot of the solution was injected into the LC-MS/MS system for analysis.
Ten male Sprague-Dawley rats (270–280 g) were kept at the animal center of Tianjin University of Traditional Chinese Medicine (Tianjin, China) under environmentally controlled conditions. […] According to the clinical dose used in human, the rat dose of A. japonicae extracts used was 0.93 g kg^−1. […] After blood sample collection into the heparinized 1.5 mL polythene tubes and centrifugation at 6000 rpm for 10 min, the plasma was transferred into clean tubes and stored in a freezer at −20°C until analysis. The pharmacokinetic parameters were determined using pharmacokinetics program (DAS1.0 Medical College of Wannan, China) and performing a one compartmental analysis.

[3] = rat plasma, LLOQ QC concentration, n = 6
[4] = rat plasma, high QC concentration, n = 6
[5] = rat plasma, low QC concentration, n = 6
[6] = rat plasma, medium QC concentration, n = 6
[7] = rat, plasma, po, 0.93 g/kg, oral A. japonica extract 0.93 g kg^−1, one compartment model, read-out: AUC(0–24 h)
[8] = rat, plasma, po, 0.93 g/kg, oral A. japonica extract 0.93 g kg^−1, read-out: area under the curve (AUC0–24 h)
[9] = rat plasma, oral A. japonica extract 0.93 g kg^−1, one compartment model
[10] = rat plasma, oral A. japonica extract 0.93 g kg^−1
[11] = stored at about −80°C for 4 weeks, rat plasma, LLOQ QC concentration, n = 6
[12] = stored at about −80°C for 4 weeks, rat plasma, high QC concentration, n = 6
[13] = stored at about −80°C for 4 weeks, rat plasma, medium QC concentration, n = 6
[14] = in vivo, rat plasma, oral A. japonica extract 0.93 g kg^−1, one compartment model

Structure (SMILES)	Free-throw 3 times Accuracy [1, 3] [%]	Free-throw 3 times Accuracy [1, 4] [%]	Free-throw 3 times Accuracy [1, 5] [%]	Free-throw 3 times Accuracy [1, 6] [%]	AUC(0-t) [2, 7] [ng·h/mL]	AUC(0-t) [2, 8] [ng·h/mL]	AUC(0-inf) [2, 9] [ng·h/mL]	half-life [2, 9] [h]	Tmax [2, 9] [h]	MRT [2, 9] [h]	MRT inf [2, 9] [h]	Cmax [2, 10] [ng/mL]	24 h stability Accuracy ([1]; LLOQ QC concentration, n = 6) [%]	24 h stability Accuracy ([1]; high QC concentration, n = 6) [%]	24 h stability Accuracy ([1]; low QC concentration, n = 6) [%]	24 h stability Accuracy ([1]; medium QC concentration, n = 6) [%]	Long stability (1 month) Accuracy [1, 11] [%]	Long stability (1 month) Accuracy [1, 12] [%]	Long stability (1 month) Accuracy [1, 13] [%]	also measured
COc1c(O)cc2c(c1O)[C@@H]1O[C@H](CO)[C@@H](O)[C@H](O)[C@H]1OC2=O [Bergeninum, bergenin]	106	87.3	104	94.0	1740 ± 666	1740 ± 666	1840 ± 769	3.87 ± 1.62	0.86 ± 0.52	6.04 ± 1.05	7.26 ± 2.17	288 ± 107								
O=C(O[C@@H]1Cc2c(O)cc(O)cc2O[C@@H]1c1ccc(O)c(O)c1)c1cc(O)c(O)c(O)c1 [Epicatechin gallate, epicatechin gallate]	109	88.0	98.4	91.4																
Oc1cc(O)c2c(c1)O[C@H](c1ccc(O)c(O)c1)[C@H](O)C2 [Epicatechin, epicatechin]	105	99.4	111	111																
O=C(O)c1cc(O)c(O)c(O)c1 [Gallic acid, gallic acid]	92.5	101	114	94.0	194 ± 44	194 ± 44	200 ± 43.9	3.21 ± 4.56	1.4 ± 1.13	4.5 ± 1.15	5.33 ± 1.61	35.5 ± 10.2	116	103	111	85.8	95.6	92.7	98.4	Long stability (1 month) Accuracy ([1]; rat, 4 weeks): 101%
O=c1c(O[C@@H]2O[C@H](CO)[C@@H](O)[C@H](O)[C@H]2O)c(-c2ccc(O)c(O)c2)oc2cc(O)cc(O)c12 [Isoquercitrin, isoquercitrin]	105	91.0	103	96.9																
C[C@@H]1O[C@@H](Oc2c(-c3ccc(O)c(O)c3)oc3cc(O)cc(O)c3c2=O)[C@H](O)[C@H](O)[C@H]1O [Quercetin-3-rhamnoside, quercetin-3-rhamnoside]	115	85.0	90.4	93.3									93.7	87.3	96.3	93.3	114	85.0	90.6	Long stability (1 month) Accuracy ([1]; stored at about −80°C for 4 weeks, rat plasma, low QC concentration, n = 6): 92.2%; AUC(0-inf) [2, 14]: 6.95 ± 20.7 ng·h/mL; half-life [2, 14]: 2.59 ± 2.8 h; Tmax [2, 14]: 0.5 ± 0.6 h; MRT [2, 14]: 5.08 ± 6.36 h; MRT inf [2, 14]: 7.09 ± 19.6 h; AUC(0-t) ([2]; in vivo, rat plasma, oral A. japonica extract 0.93 g kg^−1, read-out: area under the curve (AUC0–24 h)): 6.44 ± 12 ng·h/mL; Cmax ([2]; in vivo, rat plasma, oral A. japonica extract 0.93 g kg^−1): 7.08 ± 8.28 ng/mL
